Test results from article PMC9235088, “Characterization of a new L-carnosine synthase mined from deep-sea sediment metagenome” (Microbial Cell Factories, 2022).

Test system: T1, gene_236976 product (L-carnosine synthase, L-aminopeptidase)
T1 construct: codon-optimised synthetic gene in pET-26b (NcoI/XhoI), his6-tagged, E. coli BL21(DE3), Ni-agarose purified
Test: HPLC of L-carnosine formed, Michaelis-Menten fit
Type: biochemical, metagenome: deep-sea sediment
Settings: 100 mM β-AlaOMe, 0-400 mM L-histidine; assay buffer Na2CO3/NaHCO3 pH 10.0, 30 °C; read-out: L-histidine^b / Km
Text: HPLC of L-carnosine formed, Michaelis-Menten fit on gene_236976 product (L-carnosine synthase, L-aminopeptidase)

Km: 7.73 ± 0.29 mM
SMILES: N[C@@H](Cc1cnc[nH]1)C(=O)O [L-histidine]
